{"source": "patent US8163793B2", "about": "“Proline derivatives” (Hoffman-La Roche Inc., priority 2009, dated 2012)", "key": {"Cat L": {"target": "Cat L (UniProt P07711)", "experiment": "Cathepsin enzyme inhibition assay (fluorogenic peptide substrate Z-Val-Val-Arg-AMC), Cathepsin L", "assay_type": "biochemical, human and mouse", "settings": "enzyme 1 nM, substrate 20 μM, pH 6.5; read-out: CatL IC50", "procedure,_shortened": "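Cathepsin L at 1 nM was mixed with compound, then started with 20 μM Z-Val-Val-Arg-AMC in pH 6.5 potassium phosphate with EDTA, Triton X-100 and 5 mM DTT. AMC fluorescence (ex 360/em 465 nm) was followed over 20 min. IC50 is given in μM.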"}, "Cathepsin S": {"target": "Cathepsin S (UniProt P25774)", "experiment": "Cathepsin enzyme inhibition assay (fluorogenic peptide substrate Z-Val-Val-Arg-AMC), Cathepsin S", "assay_type": "biochemical, human and mouse", "settings": "enzyme 1 nM, substrate 20 μM, pH 6.5; read-out: CatS IC50", "procedure,_shortened": "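Human or mouse cathepsin S (1 nM) was run in 100 mM potassium phosphate pH 6.5 with 5 mM EDTA, 0.001% Triton X-100 and 5 mM DTT. The rise in AMC fluorescence from cleavage was measured, and IC50 values were calculated by standard methods and expressed in μM.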"}}, "data": [{"smiles": "Cc1cc(N2C[C@H](S(=O)(=O)c3ccc(OCC(F)(F)F)cc3Cl)C[C@H]2C(=O)NC2(C#N)CC2)n(CCc2ccccc2)n1", "note": "[Example 484, (2S,4R)-4-[2-Chloro-4-(2,2,2-trifluoro-ethoxy)-benzenesulfonyl]-1-(5-methyl-2-phenethyl-2H-pyrazol-3-yl)-pyrrolidine-2-carboxylic acid (1-cyano-cyclopropyl)-amide]", "values": [{"measurement": "IC50", "setting": "Cat L", "value": 1550, "unit": "nM"}, {"measurement": "IC50", "setting": "Cathepsin S", "value": 3.31, "unit": "nM"}]}, {"smiles": "Cc1cc(N2C[C@H](S(=O)(=O)c3ccc(N4CCN(C(C)(C)C)CC4)cc3Cl)C[C@H]2C(=O)NC2(C#N)CC2)n(CCc2ccccc2)n1", "note": "[Example 485, (2S,4R)-4-[4-(4-tert-Butyl-piperazin-1-yl)-2-chloro-benzenesulfonyl]-1-(5-methyl-2-phenethyl-2H-pyrazol-3-yl)-pyrrolidine-2-carboxylic acid (1-cyano-cyclopropyl)-amide]", "values": [{"measurement": "IC50", "setting": "Cat L", "value": 275, "unit": "nM"}, {"measurement": "IC50", "setting": "Cathepsin S", "value": 0.9, "unit": "nM"}]}, {"smiles": "N#CC1(NC(=O)[C@@H]2C[C@@H](S(=O)(=O)c3ccccc3Cl)CN2c2nc(Cl)ns2)CC1", "note": "[Example 486, (2S,4R)-4-(2-Chloro-benzenesulfonyl)-1-(3-chloro-[1,2,4]thiadiazol-5-yl)-pyrrolidine-2-carboxylic acid (1-cyano-cyclopropyl)-amide]", "values": [{"measurement": "IC50", "setting": "Cat L", "value": 22000, "unit": "nM"}, {"measurement": "IC50", "setting": "Cathepsin S", "value": 0.85, "unit": "nM"}]}, {"smiles": "COCCOc1ccc(S(=O)(=O)[C@@H]2C[C@@H](C(=O)NC3(C#N)CC3)N(c3cc(C)nn3C3CCOCC3)C2)c(Cl)c1", "note": "[Example 488, (2S,4R)-4-[2-Chloro-4-(2-methoxy-ethoxy)-benzenesulfonyl]-1-[5-methyl-2-(tetrahydro-pyran-4-yl)-2H-pyrazol-3-yl]-pyrrolidine-2-carboxylic acid (1-cyano-cyclopropyl)-amide]", "values": [{"measurement": "IC50", "setting": "Cat L", "value": 3880, "unit": "nM"}, {"measurement": "IC50", "setting": "Cathepsin S", "value": 2.5, "unit": "nM"}]}, {"smiles": "COCCOc1ccc(S(=O)(=O)[C@@H]2C[C@@H](C(=O)NC3(C#N)CC3)N(c3cc(C)nn3C3CCC3)C2)c(Cl)c1", "note": "[Example 489, (2S,4R)-4-[2-Chloro-4-(2-methoxy-ethoxy)-benzenesulfonyl]-1-(2-cyclobutyl-5-methyl-2H-pyrazol-3-yl)-pyrrolidine-2-carboxylic acid (1-cyano-cyclopropyl)-amide]", "values": [{"measurement": "IC50", "setting": "Cat L", "value": 3540, "unit": "nM"}, {"measurement": "IC50", "setting": "Cathepsin S", "value": 0.51, "unit": "nM"}]}, {"smiles": "Cc1cc(N2C[C@H](S(=O)(=O)c3ccc(-n4cccn4)cc3Cl)C[C@H]2C(=O)NC2(C#N)CC2)n(C2CCOCC2)n1", "note": "[Example 490]", "values": [{"measurement": "IC50", "setting": "Cat L", "value": 4330, "unit": "nM"}, {"measurement": "IC50", "setting": "Cathepsin S", "value": 0.94, "unit": "nM"}]}, {"smiles": "Cc1cc(N2C[C@H](S(=O)(=O)c3ccc(-n4cccn4)cc3Cl)C[C@H]2C(=O)NC2(C#N)CC2)n(C2CCC2)n1", "note": "[Example 491, (2S,4R)-4-(2-Chloro-4-pyrazol-1-yl-benzenesulfonyl)-1-(2-cyclobutyl-5-methyl-2H-pyrazol-3-yl)-pyrrolidine-2-carboxylic acid (1-cyano-cyclopropyl)-amide]", "values": [{"measurement": "IC50", "setting": "Cat L", "value": 5280, "unit": "nM"}, {"measurement": "IC50", "setting": "Cathepsin S", "value": 0.655, "unit": "nM"}]}]}
